Experiment: xn = mol fraction of the nth substance listed
Details: 100 kPa, Liquid; for viscosity: Capillary tube (Ostwald / Ubbelohde) method; for mass density: Vibrating tube method

CC1CCC(=O)O1 (stereo not drawn) [γ-valerolactone] + CCCC[n+]1ccn(C)c1.O=S(=O)([N-]S(=O)(=O)C(F)(F)F)C(F)(F)F
Details	mass density [kg/m3]	viscosity [mPa·s]
293.15 K, x2 = 0	1053.99	1.99
293.15 K, x2 = 0.0505	1108.43	2.51
293.15 K, x2 = 0.1001	1153.24	3.21
293.15 K, x2 = 0.1492	1191.45	4.28
293.15 K, x2 = 0.1998	1223.25	5.6
293.15 K, x2 = 0.3008	1274.04	8.84
293.15 K, x2 = 0.4031	1317.29	13.88
293.15 K, x2 = 0.5048	1347.03	19.18
293.15 K, x2 = 0.6031	1373.16	25.88
293.15 K, x2 = 0.6973	1393.96	33.12
293.15 K, x2 = 0.7994	1413.3	42.31
293.15 K, x2 = 0.8711	1426.6	50.45
298.15 K, x2 = 0	1049.28	1.82
298.15 K, x2 = 0.0505	1103.66	2.21
298.15 K, x2 = 0.1001	1148.42	2.76
298.15 K, x2 = 0.1492	1186.58	3.57
298.15 K, x2 = 0.1998	1218.36	4.71
298.15 K, x2 = 0.3008	1269.12	7.2
298.15 K, x2 = 0.4031	1312.35	11.11
298.15 K, x2 = 0.5048	1342.1	15.34
298.15 K, x2 = 0.6031	1368.22	20.69
298.15 K, x2 = 0.6973	1389.01	26.55
298.15 K, x2 = 0.7994	1408.36	34.16
298.15 K, x2 = 0.8711	1421.67	40.79
303.15 K, x2 = 0	1044.58	1.67
303.15 K, x2 = 0.0505	1098.86	1.98
303.15 K, x2 = 0.1001	1143.54	2.45
303.15 K, x2 = 0.1492	1181.67	3.13
303.15 K, x2 = 0.1998	1213.42	4.03
303.15 K, x2 = 0.3008	1264.12	6.01
303.15 K, x2 = 0.4031	1307.33	9.11
303.15 K, x2 = 0.5048	1337.07	12.52
303.15 K, x2 = 0.6031	1363.16	17.18
303.15 K, x2 = 0.6973	1383.94	21.62
303.15 K, x2 = 0.7994	1403.29	27.85
303.15 K, x2 = 0.8711	1416.59	33.15
308.15 K, x2 = 0	1039.87	1.53
308.15 K, x2 = 0.0505	1094.09	1.81
308.15 K, x2 = 0.1001	1138.71	2.22
308.15 K, x2 = 0.1492	1176.8	2.79
308.15 K, x2 = 0.1998	1208.52	3.53
308.15 K, x2 = 0.3008	1259.2	5.16
308.15 K, x2 = 0.4031	1302.39	7.78
308.15 K, x2 = 0.5048	1332.11	10.6
308.15 K, x2 = 0.6031	1358.2	14.12
308.15 K, x2 = 0.6973	1378.98	17.97
308.15 K, x2 = 0.7994	1398.34	22.82
308.15 K, x2 = 0.8711	1411.63	27.09
313.15 K, x2 = 0	1035.16	1.42
313.15 K, x2 = 0.0505	1089.31	1.65
313.15 K, x2 = 0.1001	1133.87	2
313.15 K, x2 = 0.1492	1171.93	2.45
313.15 K, x2 = 0.1998	1203.61	3.17
313.15 K, x2 = 0.3008	1254.26	4.5
313.15 K, x2 = 0.4031	1297.42	6.65
313.15 K, x2 = 0.5048	1327.12	9.02
313.15 K, x2 = 0.6031	1353.2	12.05
313.15 K, x2 = 0.6973	1373.98	15.14
313.15 K, x2 = 0.7994	1393.33	19.14
313.15 K, x2 = 0.8711	1406.62	22.7
318.15 K, x2 = 0	1030.45	1.32
318.15 K, x2 = 0.0505	1084.53	1.52
318.15 K, x2 = 0.1001	1129.05	1.79
318.15 K, x2 = 0.1492	1167.06	2.22
318.15 K, x2 = 0.1998	1198.73	2.8
318.15 K, x2 = 0.3008	1249.35	4.03
318.15 K, x2 = 0.4031	1292.49	5.76
318.15 K, x2 = 0.5048	1322.17	7.84
318.15 K, x2 = 0.6031	1348.24	10.41
318.15 K, x2 = 0.6973	1369.02	12.96
318.15 K, x2 = 0.7994	1388.35	16.42
318.15 K, x2 = 0.8711	1401.62	19.25
323.15 K, x2 = 0	1025.74	1.23
323.15 K, x2 = 0.0505	1079.76	1.41
323.15 K, x2 = 0.1001	1124.22	1.66
323.15 K, x2 = 0.1492	1162.18	2.04
323.15 K, x2 = 0.1998	1193.83	2.49
323.15 K, x2 = 0.3008	1244.4	3.59
323.15 K, x2 = 0.4031	1287.51	5.19
323.15 K, x2 = 0.5048	1317.18	6.98
323.15 K, x2 = 0.6031	1343.25	9.22
323.15 K, x2 = 0.6973	1364.02	11.45
323.15 K, x2 = 0.7994	1383.35	14.32
323.15 K, x2 = 0.8711	1396.6	16.68
